Test results published in ChEMBL document CHEMBL1129506, “2,4-Diarylpyrrolidine-3-carboxylic acids--potent ETA selective endothelin receptor antagonists. 1. Discovery of A-127722” (J Med Chem, 1996).

Legend:
Endothelin-1 receptor [1] = molecular target: T1, Endothelin-1 receptor (Homo sapiens, UniProt P25101); assay: Radioligand binding selectivity to human Endothelin A receptor in chinese hamster ovary cells; format: cell-based, CHO
T1 sequence (P25101 whole entry): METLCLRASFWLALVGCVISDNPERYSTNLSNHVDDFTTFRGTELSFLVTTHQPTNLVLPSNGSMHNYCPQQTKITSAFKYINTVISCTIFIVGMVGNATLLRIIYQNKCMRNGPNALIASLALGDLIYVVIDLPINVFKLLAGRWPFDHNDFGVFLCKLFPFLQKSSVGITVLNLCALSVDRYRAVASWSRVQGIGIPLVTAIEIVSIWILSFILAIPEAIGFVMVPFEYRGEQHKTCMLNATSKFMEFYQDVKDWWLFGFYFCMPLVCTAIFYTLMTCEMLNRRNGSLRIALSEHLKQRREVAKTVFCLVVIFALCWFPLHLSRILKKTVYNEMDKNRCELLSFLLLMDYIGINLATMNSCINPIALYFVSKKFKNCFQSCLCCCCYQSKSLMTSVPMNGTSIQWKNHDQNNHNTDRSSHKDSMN

[2] = molecular target: T2, Endothelin receptor type B (Homo sapiens, UniProt P24530); assay: Radioligand binding selectivity to human Endothelin B receptor in chinese hamster ovary cells; format: cell-based, CHO
T2 sequence (P24530 whole entry): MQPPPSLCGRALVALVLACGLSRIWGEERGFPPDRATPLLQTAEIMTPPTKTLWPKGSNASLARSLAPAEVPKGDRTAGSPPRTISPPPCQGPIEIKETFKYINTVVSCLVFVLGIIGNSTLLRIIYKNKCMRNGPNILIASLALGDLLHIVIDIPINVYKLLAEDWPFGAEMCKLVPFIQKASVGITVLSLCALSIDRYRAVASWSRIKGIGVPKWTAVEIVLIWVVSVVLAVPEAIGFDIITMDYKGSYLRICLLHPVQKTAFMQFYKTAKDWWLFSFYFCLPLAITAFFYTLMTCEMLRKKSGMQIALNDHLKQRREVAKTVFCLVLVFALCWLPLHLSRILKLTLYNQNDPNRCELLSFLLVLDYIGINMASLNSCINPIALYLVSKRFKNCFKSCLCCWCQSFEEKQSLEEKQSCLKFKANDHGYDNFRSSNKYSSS

Endothelin receptor = molecular target: T3, Endothelin receptor (Rattus norvegicus, UniProt P26684+P21451); assay: Inhibition of phosphoinositol hydrolysis of MMQ cells.; format: functional, cell-based
T3 sequence (P26684 whole entry): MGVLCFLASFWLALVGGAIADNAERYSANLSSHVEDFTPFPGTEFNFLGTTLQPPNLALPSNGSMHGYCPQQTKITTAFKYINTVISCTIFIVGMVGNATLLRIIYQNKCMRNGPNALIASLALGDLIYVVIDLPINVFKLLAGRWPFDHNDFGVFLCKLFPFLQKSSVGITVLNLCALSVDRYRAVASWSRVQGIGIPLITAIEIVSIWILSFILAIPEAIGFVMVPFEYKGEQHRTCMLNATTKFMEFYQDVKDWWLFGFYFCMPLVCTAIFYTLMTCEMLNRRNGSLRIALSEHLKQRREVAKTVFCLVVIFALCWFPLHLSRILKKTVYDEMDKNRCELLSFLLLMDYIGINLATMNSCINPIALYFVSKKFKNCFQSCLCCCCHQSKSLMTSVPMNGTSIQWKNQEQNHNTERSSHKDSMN
T3 sequence (P21451 whole entry): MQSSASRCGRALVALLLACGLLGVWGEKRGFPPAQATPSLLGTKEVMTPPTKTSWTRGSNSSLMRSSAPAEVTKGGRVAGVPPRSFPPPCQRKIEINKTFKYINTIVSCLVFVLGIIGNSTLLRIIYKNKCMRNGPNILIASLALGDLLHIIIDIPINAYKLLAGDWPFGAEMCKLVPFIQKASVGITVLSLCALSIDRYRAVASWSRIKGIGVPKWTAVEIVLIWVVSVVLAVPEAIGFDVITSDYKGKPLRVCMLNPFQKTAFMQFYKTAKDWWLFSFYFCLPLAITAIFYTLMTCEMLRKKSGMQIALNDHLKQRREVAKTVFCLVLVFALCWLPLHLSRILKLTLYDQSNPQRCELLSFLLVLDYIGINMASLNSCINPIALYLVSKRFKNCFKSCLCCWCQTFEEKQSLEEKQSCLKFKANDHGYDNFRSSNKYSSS

[3] = molecular target: T4, Endothelin receptor type B (Sus scrofa, UniProt P35463); assay: Inhibitory activity measured against Endothelin B receptor binding to porcine cerebellum; format: tissue-based
T4 sequence (P35463 whole entry): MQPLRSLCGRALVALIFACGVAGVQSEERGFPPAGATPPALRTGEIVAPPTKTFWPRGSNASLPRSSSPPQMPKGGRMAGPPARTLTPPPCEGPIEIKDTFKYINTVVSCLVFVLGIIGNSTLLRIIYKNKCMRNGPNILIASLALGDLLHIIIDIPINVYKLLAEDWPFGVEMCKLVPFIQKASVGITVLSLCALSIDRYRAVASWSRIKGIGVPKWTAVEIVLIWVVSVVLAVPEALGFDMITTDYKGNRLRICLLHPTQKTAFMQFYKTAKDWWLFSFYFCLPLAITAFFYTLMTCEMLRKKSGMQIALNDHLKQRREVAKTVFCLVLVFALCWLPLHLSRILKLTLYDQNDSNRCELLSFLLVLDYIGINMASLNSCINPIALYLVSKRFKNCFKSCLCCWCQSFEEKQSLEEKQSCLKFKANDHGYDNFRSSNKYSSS

Endothelin-1 receptor [4] = molecular target: T5, Endothelin-1 receptor (Rattus norvegicus, UniProt P26684); assay: Inhibitory activity against the Endothelin A receptor of rat MMQ cells; format: cell-based
T5 sequence (P26684 whole entry): T3 sequence (P26684 whole entry)

[5] = molecular target: T4, Endothelin receptor type B; assay: Inhibitory activity was measured against Endothelin B receptor binding to porcine cerebellum; inactive; format: tissue-based
[6] = molecular target: T2, Endothelin receptor type B; assay: Inhibitory activity against human Endothelin B receptor in chinese hamster ovary cells; format: cell-based, CHO
Endothelin-1 receptor [7] = molecular target: T1, Endothelin-1 receptor; assay: Inhibitory activity against human Endothelin A receptor in chinese hamster ovary cells; format: cell-based, CHO

SMILES | IC50 (Endothelin-1 receptor [1]) [nM] | IC50 [2] [nM] | IC50 (Endothelin receptor) [nM] | IC50 [3] [nM] | IC50 (Endothelin-1 receptor [4]) [nM] | IC50 [5] | Ki [6] [nM] | Ki (Endothelin-1 receptor [7]) [nM]
CCCCN(CCCC)C(=O)CN1CC(c2ccc3c(c2)OCO3)C(C(N)=O)C1c1ccc(OC)cc1 (stereo not given) |  |  |  |  | 58 | Not Active |  | 
COc1ccc(C2(O)OC(=O)C(c3ccc4c(c3)OCO4)=C2Cc2cc(OC)c(OC)c(OC)c2)cc1 (stereo not given) [PD-156707] |  |  |  |  |  |  | 139 | 
CCCc1cc(C(=O)O)ccc1OC(C(=O)NS(=O)(=O)c1ccc(C(C)C)cc1)c1ccc2c(c1)OCO2 [L-754142] |  |  |  |  |  |  | 5.4 | 0.13
Cc1noc(NS(=O)(=O)c2cccc3c(N(C)C)cccc23)c1C [BMS-182874] |  |  |  |  |  |  | > 50000 | 

Other lines, results leading:

IC50 (Endothelin-1 receptor [1]) [nM] | IC50 [2] [nM] | IC50 (Endothelin receptor) [nM] | IC50 [3] [nM] | IC50 (Endothelin-1 receptor [4]) [nM] | IC50 [5] | Ki [6] [nM] | Ki (Endothelin-1 receptor [7]) [nM] | SMILES
0.55 | 397 | 0.24 | 598 |  |  |  |  | CCCN(CCC)C(=O)CN1C[C@@H](c2ccc3c(c2)OCO3)[C@H](C(=O)O)[C@H]1c1ccc(OC)cc1
45.3 | 579 | 24.6 | 398 | 17.2 |  |  |  | CCCNC(=O)CN1C[C@@H](c2ccc3c(c2)OCO3)[C@H](C(=O)O)[C@H]1c1ccc(OC)cc1
4.88 | 1080 | 0.97 | 1390 | 4.71 |  |  |  | CCCCN(C)C(=O)CN1C[C@@H](c2ccc3c(c2)OCO3)[C@H](C(=O)O)[C@H]1c1ccc(OC)cc1
0.81 | 211 | 0.25 | 40 | 0.22 |  |  |  | CCCCN(CCC)C(=O)CN1C[C@@H](c2ccc3c(c2)OCO3)[C@H](C(=O)O)[C@H]1c1ccc(OC)cc1
21.3 | 4570 | 9.12 | 2900 | 6.63 |  |  |  | CCCN(C)C(=O)CN1C[C@@H](c2ccc3c(c2)OCO3)[C@H](C(=O)O)[C@H]1c1ccc(OC)cc1
